Measured values as given in PMC5794004 (Bioorganic & medicinal chemistry, 2017).
Values belong to the compound of their own block, whether it stands above or below them.

What was measured:
hCB2 receptors = hCB2 receptors (Homo sapiens, UniProt P34972); assay: CB2 receptor radioligand binding, [3H]CP55,940, CHO-K1 hCB2 membranes; conditions: for interaction with CB2R: up to 100 μM
hCB1R = hCB1R (Homo sapiens, UniProt P21554); assay: CB1 receptor radioligand binding, [3H]CP55,940, CHO-K1 hCB1R membranes; conditions: for increase of [3H]CP55,940 binding at CB1R: maximal increase over vehicle
MAGL = target: T1, MAGL (Homo sapiens, UniProt Q99685); assay: MAGL activity assay, U937 cell homogenate; assay type: biochemical
T1 sequence (Q99685 1-303): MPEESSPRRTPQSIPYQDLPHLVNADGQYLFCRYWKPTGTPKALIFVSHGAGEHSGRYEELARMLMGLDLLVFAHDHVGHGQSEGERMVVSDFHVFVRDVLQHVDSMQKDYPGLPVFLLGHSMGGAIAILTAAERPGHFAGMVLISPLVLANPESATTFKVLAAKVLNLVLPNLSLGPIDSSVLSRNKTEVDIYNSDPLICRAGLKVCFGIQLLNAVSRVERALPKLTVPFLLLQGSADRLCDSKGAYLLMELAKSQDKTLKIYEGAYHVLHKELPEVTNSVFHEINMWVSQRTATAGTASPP

AEA uptake = AEA uptake assay, intact U937 cells; assay type: cell-based
[1] = acute feeding model; cited from earlier work

hCB1R, sequence (P21554 whole entry): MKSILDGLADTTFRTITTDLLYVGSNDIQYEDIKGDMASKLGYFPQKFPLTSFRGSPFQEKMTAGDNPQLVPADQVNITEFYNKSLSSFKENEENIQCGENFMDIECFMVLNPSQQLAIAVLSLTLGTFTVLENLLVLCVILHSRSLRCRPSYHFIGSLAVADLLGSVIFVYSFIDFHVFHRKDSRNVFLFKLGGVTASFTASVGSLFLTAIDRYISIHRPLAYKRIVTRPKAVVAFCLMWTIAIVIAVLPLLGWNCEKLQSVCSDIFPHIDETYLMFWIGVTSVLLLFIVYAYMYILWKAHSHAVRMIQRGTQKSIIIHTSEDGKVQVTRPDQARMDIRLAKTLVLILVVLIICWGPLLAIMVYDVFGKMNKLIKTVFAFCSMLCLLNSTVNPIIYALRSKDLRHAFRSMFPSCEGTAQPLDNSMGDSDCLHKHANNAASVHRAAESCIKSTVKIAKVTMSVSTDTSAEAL
hCB2 receptors, sequence (P34972 whole entry): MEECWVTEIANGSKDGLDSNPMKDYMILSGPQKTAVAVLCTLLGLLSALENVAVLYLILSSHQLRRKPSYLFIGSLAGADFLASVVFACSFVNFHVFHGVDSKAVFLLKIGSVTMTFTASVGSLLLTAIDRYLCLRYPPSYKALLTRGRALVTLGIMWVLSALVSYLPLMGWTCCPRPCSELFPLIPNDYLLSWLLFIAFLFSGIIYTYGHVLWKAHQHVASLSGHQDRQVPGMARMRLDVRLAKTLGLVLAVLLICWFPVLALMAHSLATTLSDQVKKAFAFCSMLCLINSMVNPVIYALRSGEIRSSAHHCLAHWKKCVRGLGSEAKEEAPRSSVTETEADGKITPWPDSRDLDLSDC

Compound: O=C(Nc1ccc(Cl)cc1)Nc1cccc(Nc2cccc(N3CCCC3)n2)c1 [SN15b]
interaction with CB2R (hCB2 receptors): did not significantly interact

Compound: O=C(Nc1ccc(Cl)cc1)Nc1cccc(-c2cccc(N3CCCC3)n2)c1 [PSNCBAM-1, 1-(4-Chlorophenyl)-3-{3-[6-(pyrrolidin-1-yl)pyridin-2-yl]phenyl}urea]
MAGL result in words (MAGL): negative | AEA cell uptake result in words (AEA uptake): negative | binding to CB2R (hCB2 receptors; up to 10 μM): did not show any significant binding | increase of [3H]CP55,940 binding at CB1R (hCB1R): 15–20% | food intake and body weight [1]: decrease food intake and body weight

More lines, now with the values ahead:

increase of [3H]CP55,940 binding at CB1R (hCB1R): 15–20%
Compound: O=C(Nc1ccc(Cl)cc1)Nc1cccc(-c2cccc(N3CCCC3)c2)c1 [SC4a, 1-(4-Chlorophenyl)-3-[3′-(pyrrolidin-1-yl)biphenyl-3-yl]urea]

interaction with CB2R (hCB2 receptors): did not significantly interact
Compound: O=C(Nc1ccc(Cl)cc1)Nc1cccc(Nc2cccc(N3CCCC3)c2)c1 [FG45a, 1-(4-Chlorophenyl)-3-(3-{[3-(pyrrolidin-1-yl)phenyl]amino}phenyl)urea]

Ki (hCB2 receptors): ~50 µM | binding to CB1R (hCB1R; at 100 μM): approx. 10% | influence on [3H]CP55,940 binding to CB1R (hCB1R; up to 10 μM): does not influence
Compound: O=C(Cc1ccc(Cl)cc1)Nc1cccc(-c2cccc(N3CCCC3)c2)c1 [SC33, 2-(4-Chlorophenyl)-N-[3′-(pyrrolidin-1-yl)biphenyl-3-yl]acetamide]
